Values of other authors, collected in patent US20020022024A1, “Hemoglobinase inhibitors and methods of use” (priority 2000, published 2002).

Columns and labels:
[1] = biological target: T1, S. mansoni cathepsin B, Sm31 (Schistosoma mansoni, UniProt P25792); settings: short synthetic substrate; Klinkert et al. 1994
T1 sequence (P25792 89-340): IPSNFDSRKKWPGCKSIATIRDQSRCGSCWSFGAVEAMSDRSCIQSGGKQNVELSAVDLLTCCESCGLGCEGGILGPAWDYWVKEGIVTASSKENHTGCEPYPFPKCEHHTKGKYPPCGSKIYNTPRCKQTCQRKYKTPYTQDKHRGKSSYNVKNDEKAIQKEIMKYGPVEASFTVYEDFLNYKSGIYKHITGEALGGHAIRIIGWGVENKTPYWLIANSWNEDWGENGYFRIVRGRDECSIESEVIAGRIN

schistosomules = settings: added to culture media, in comparison to controls; Zerda et al. 1988

inhibitor potency on Sm31 relative to a derivative of E64 [1]	SMILES	death rate of schistosomules (schistosomules)
more potent inhibitor of Sm31	CSCCC(NC(=O)C(Cc1c[nH]c2ccccc12)NC(=O)OCc1ccccc1)C(=O)C=[N+]=[N-] (stereo not drawn) [Z-Trp-Met-CHN2]	–
–	CC(C)C[C@H](NC(=O)[C@H]1O[C@@H]1C(=O)O)C(=O)NCCCCN [EP459]	increased the death rate of schistosomules
